Data reported in patent US11535632B2, “Solid forms of an S1P-receptor modulator” (ESCAPE Bio, Inc., priority 2019, dated 2022).

Legend:
Assay type in all cases: physicochemical
Water activity study = conditions: 4 days, start Form A + Form B
Protocol: About 15 mg of Form A and 15 mg of Form B were added to the saturated solutions of different water activities and equilibrated at 25° C. and 50° C. for 4 days, respectively. The resulting suspensions were filtered, and the solid parts (wet cake) were investigated by XRPD to determine the polymorph.
According to XRPD results, Form B was obtained in methanol/water with water activity (a.w.) ranging from 0.1 to 0.9 at 25° C., as shown in FIGS. 20A-20B. At 50° C., Form B was obtained in methanol/water with a.w. ≥0.2, whereas a mixture of Form A and Form B was obtained in a.w. […] The water activity of the binary solvent system was calculated based on UNIFAC method (UNIQUAC Functional-group Activity Coefficients).

[1] = Solubility and metastable zone width by Crystal 16; conditions: for metastable zone width: 0.5° C./min
Protocol: A Crystal 16 crystallization system (Technobis, NL) was used to determine the solubility and metastable zone of the material as a function of temperature. Slurries of the API, in different overall concentrations, were prepared by adding a known amount of solid to a known amount of chilled solvent (between 0.5 and 1.5 ml) and stirred at 350 rpm using a magnetic bar. The saturation temperature was measured through cycles of heating and cooling from 20 to 90° C. at 0.5° C./min.
Upon increasing the temperature, the solid completely dissolved and the suspension became a clear solution such that the light transmission reached its maximum value. This temperature was assigned as the clear point, which was assumed to coincide with the saturation temperature. Then, by cooling the solution at a rate of 0.5° C./min, the temperature at which particles first formed was detected by a decrease in the light transmission. This was assigned as the cloud point. The points were fitted by a Van′t Hoff equation and the difference between the cloud and the clear points defined the metastable zone width (MSZW) of the system. The instrument control software was Crystallization Systems and the data were analyzed using Crystal Clear and Microsoft Excel.
The solubility of compound 1 (various masses) in DMAC and DMSO (1 ml) was analyzed on the Crystal 16 (between 25-90° C. for DMSO and 0-90° C. for DMAC). A heating/cooling rate of 0.5° C./min and a stirring rate of 300 rpm was used for all samples. The resulting turbidity/temperature plots were analyzed to obtain solubility curves and determine the metastable zone width. Any precipitated solids were isolated by filtration and analyzed by XRPD.

[2] = Competitive slurries of Form B and C in process relevant solvents; conditions: 72 hours, start Form B + C
Protocol: Determination of the relative stabilities of Form B and Form C was undertaken to identify which material was more thermodynamically stable in process relevant solvents. As a suspected solvate was isolated from experiments where DMAC was used as a solvent, only DMSO and acetic acid were determined to be appropriate process solvents. Combinations of these solvents with relevant antisolvents were therefore selected for the competitive slurry experiments.
Compound 1 (from Example 2) was dispensed into HPLC vials. To these, 1 ml of selected solvents was subsequently added to give a suspension. Materials were slurried for 72 hours at 90° C., 50° C. or 25° C. with 500 rpm stirring. Material was subsequently isolated by centrifugation and analyzed by XRPD.

For `O=C(O)[C@H]1C[C@@H](N2CCc3oc(-c4ccc(OCc5ccc(Cl)cc5)cc4)nc3C2)C1` [Compound 1, (1s,3s)-3-(2-(4-((4-chlorobenzyl)oxy)phenyl)-6,7-dihydrooxazolo[4,5-c]pyridin-5(4H)-yl)cyclobutane-1-carboxylic acid], the “XRPD of solid after equilibration” value (Water activity study; Methanol/water (20:80, v/v) a.w. = 0.9, 25° C.) was “Form B”, the “XRPD of solid after equilibration” value (Water activity study; Methanol/water (20:80, v/v) a.w. = 0.9, 50° C.) was “Form B” and the “XRPD of solid after equilibration” value (Water activity study; Methanol/water (57:43, v/v) a.w. = 0.7, 25° C.) was “Form B”. The “XRPD of solid after equilibration” value (Water activity study; Methanol/water (57:43, v/v) a.w. = 0.7, 50° C.) was “Form B”, the “XRPD of solid after equilibration” value (Water activity study; Methanol/water (69:31, v/v) a.w. = 0.6, 25° C.) was “Form B” and the “XRPD of solid after equilibration” value (Water activity study; Methanol/water (69:31, v/v) a.w. = 0.6, 50° C.) was “Form B”. The “XRPD of solid after equilibration” value (Water activity study; Methanol/water (77:23, v/v) a.w. = 0.5, 25° C.) was “Form B”, the “XRPD of solid after equilibration” value (Water activity study; Methanol/water (77:23, v/v) a.w. = 0.5, 50° C.) was “Form B” and the “XRPD of solid after equilibration” value (Water activity study; Methanol/water (84:16, v/v) a.w. = 0.4, 25° C.) was “Form B”. For the same compound, the “XRPD of solid after equilibration” value (Water activity study; Methanol/water (84:16, v/v) a.w. = 0.4, 50° C.) was “Form B”, the “XRPD of solid after equilibration” value (Water activity study; Methanol/water (89:11, v/v) a.w. = 0.3, 25° C.) was “Form B” and the “XRPD of solid after equilibration” value (Water activity study; Methanol/water (89:11, v/v) a.w. = 0.3, 50° C.) was “Form B”. For the same compound, the “XRPD of solid after equilibration” value (Water activity study; Methanol/water (93:7, v/v) a.w. = 0.2, 25° C.) was “Form B”, the “XRPD of solid after equilibration” value (Water activity study; Methanol/water (93:7, v/v) a.w. = 0.2, 50° C.) was “Form B” and the “XRPD of solid after equilibration” value (Water activity study; Methanol/water (97:3, v/v) a.w. = 0.1, 25° C.) was “Form B”. For the same compound, the “XRPD of solid after equilibration” value (Water activity study; Methanol/water (97:3, v/v) a.w. = 0.1, 50° C.) was “Form A + B”, the metastable zone width ([1]; DMAC, 0-90° C.) was “ca. 30 °C” and the metastable zone width ([1]; DMSO, 25-90° C.) was “ca. 30 °C”. For the same compound, the solubility ([1]; neat acetic acid) was “very high solubility”, the “XRPD analysis after slurrying” value ([2]; Acetic acid:H2O (1:1), 25° C.) was “Form B” and the “XRPD analysis after slurrying” value ([2]; Acetic acid:H2O (1:1), 50° C.) was “Form B”. The “XRPD analysis after slurrying” value ([2]; Acetic acid:H2O (1:1), 90° C.) was “Form B”, the “XRPD analysis after slurrying” value ([2]; Acetic acid:MeCN (1:3), 25° C.) was “Form B” and the “XRPD analysis after slurrying” value ([2]; Acetic acid:MeCN (1:3), 50° C.) was “Form B”. The “XRPD analysis after slurrying” value ([2]; Acetic acid:MeCN (1:3), 90° C.) was “Form B”, the “XRPD analysis after slurrying” value ([2]; DMSO, 25° C.) was “Form B” and the “XRPD analysis after slurrying” value ([2]; DMSO, 50° C.) was “Poorly crystalline”. The “XRPD analysis after slurrying” value ([2]; DMSO, 90° C.) was “poorly crystalline Form A”, the “XRPD analysis after slurrying” value ([2]; DMSO:H2O (1:1), 25° C.) was “Form B” and the “XRPD analysis after slurrying” value ([2]; DMSO:H2O (1:1), 50° C.) was “Form B”. The “XRPD analysis after slurrying” value ([2]; DMSO:H2O (1:1), 90° C.) was “Form B”.
